In US20060189574A1, “Method of treating high plasma cholesterol levels” (priority 2000, published 2006):

Legend:
[1] = system: plasma cholesterol; assay: Effect of Orlistat/XENICAL and cholestyramine/[…] on plasma cholesterol in volunteers; type: in vivo, human; details: for plasma cholesterol, mean: mean of volunteers
Source text: The effect of a combination of Orlistat/XENICAL® and a bile acid sequestrant cholestyramine/[…]® on plasma cholesterol was examined.
Three hyper-cholesterolemic volunteers, one female, 2 males, […] cholesterol level: They continued on a combination of […], […]

[2] = system: animal models; details: cited from earlier work
[3] = system: fat absorption; details: humans; cited from earlier work

With `CCCCCCCCCCC[C@@H](C[C@@H]1OC(=O)[C@H]1CCCCCC)OC(=O)[C@H](CC(C)C)NC=O` [Xenical, Orlistat] the plasma cholesterol course ([1]; all three individuals, end of 6 weeks treatment with Xenical b.i.d.) was “reasonably stable”, the “plasma cholesterol, mean” value ([1]; week 4, Xenical b.i.d.) was 252 mg/100 ml and the “plasma cholesterol, mean” value ([1]; week 5, Xenical b.i.d.) was 225 mg/100 ml. For the same molecule, the “plasma cholesterol, mean” value ([1]; week 6, Xenical b.i.d.) was 247 mg/100 ml, the “plasma cholesterol, mean” value ([1]; week 11, Xenical b.i.d. after cessation of Quantalan) was 253 mg/100 ml and the “plasma cholesterol, mean” value ([1]; week 13, Xenical b.i.d. after cessation of Quantalan) was 263 mg/100 ml. It also gave a plasma cholesterol ([1]; volunteer 1, week 4, Xenical b.i.d.) of 252 mg/100 ml, a plasma cholesterol ([1]; volunteer 1, week 5, Xenical b.i.d.) of 239 mg/100 ml and a plasma cholesterol ([1]; volunteer 1, week 6, Xenical b.i.d.) of 233 mg/100 ml. For the same molecule, the plasma cholesterol ([1]; volunteer 1, week 11, Xenical b.i.d. after cessation of Quantalan) was 247 mg/100 ml, the plasma cholesterol ([1]; volunteer 2, week 4, Xenical b.i.d.) was 236 mg/100 ml and the plasma cholesterol ([1]; volunteer 2, week 5, Xenical b.i.d.) was 212 mg/100 ml. The plasma cholesterol ([1]; volunteer 2, week 6, Xenical b.i.d.) was 232 mg/100 ml, the plasma cholesterol ([1]; volunteer 2, week 11, Xenical b.i.d. after cessation of Quantalan) was 230 mg/100 ml and the plasma cholesterol ([1]; volunteer 2, week 13, Xenical b.i.d. after cessation of Quantalan) was 226 mg/100 ml. For the same molecule, the plasma cholesterol ([1]; volunteer 3, week 4, Xenical b.i.d.) was 269 mg/100 ml, the plasma cholesterol ([1]; volunteer 3, week 6, Xenical b.i.d.) was 277 mg/100 ml and the plasma cholesterol ([1]; volunteer 3, week 11, Xenical b.i.d. after cessation of Quantalan) was 282 mg/100 ml. For the same molecule, the plasma cholesterol ([1]; volunteer 3, week 13, Xenical b.i.d. after cessation of Quantalan) was 300 mg/100 ml, the body weight [2] was “reduce body weight” and the fat absorption [2] was “inhibit fat absorption”. For the same molecule, the fat absorption [3] was “potent inhibition of fat absorption”.
